In series [1] the target is T1, RalB-GDP (Homo sapiens, UniProt P11234, Q72L).
T1 construct: made in house
T1 sequence (P11234 1-206 Q72L): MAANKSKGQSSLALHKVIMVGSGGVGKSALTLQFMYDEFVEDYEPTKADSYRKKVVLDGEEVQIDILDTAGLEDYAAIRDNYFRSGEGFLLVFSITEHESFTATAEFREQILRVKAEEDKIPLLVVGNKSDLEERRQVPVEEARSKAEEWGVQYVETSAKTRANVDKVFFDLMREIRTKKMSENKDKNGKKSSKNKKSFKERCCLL
Nature of the series: Surface Plasma Resonance (SPR) binding, Biacore 3000. Particulars: RalB immobilized on CM5 chip; PBS pH 7.4, 1 μM GDP, 2 mM MgCl2, 3% DMSO. Here is the method:
(§1) Consequently, the binding of BQU57 to RalB-GDP was then determined using Isothermal Titration Calorimetry (ITC). ITC experiments were carried out using the MicroCal iTC200 system. Both protein and drug were prepared in 50 mM sodium phosphate, pH 7.6, 100 mM NaCl, and 1 mM MgCl2. Final DMSO concentration was adjusted to 1%. RalB-GDP protein (500 μM) were loaded into the syringe and titrated into drug (25 μM) or buffer alone as control. All experiments were carried out at 25° C. […] SPR experiments were carried out using the Biacore 3000 system. Running buffer: PBS, pH 7.4, 1 μM GDP, 2 mM MgCl2, 3% DMSO. Regeneration buffer: PBS, pH 7.4, 1 μM GDP, 2 mM Mg Cl2. RalB protein was immobilized on CM5 chip; samples of compound BQU57 in running buffer were injected at 30 μL/min for 60 s contact time followed by 5 minute regeneration.
For orientation: In SPR one partner is held on a chip, and binding of the other changes the refractive index at the surface.

The target in series [2] is T1, RalB-GDP. Nature of the series: Isothermal Titration Calorimetry (ITC). Particulars: 25° C.; 50 mM sodium phosphate pH 7.6; 1% DMSO. It counts as binding. How it is done: as §1
For orientation: In ITC the heat of successive injections is recorded.

The target of series [3] is T1, RalB-GDP. The series is described as follows: Differential scanning fluorometry (DSF). The format is binding. Particulars: 10 μM RalB-GDP, 1% DMSO. How it is done:
Differential scanning fluorometry (DSF) was used to evaluate binding between compounds and RalB-GDP. The melting temperature was measured by monitoring the increase of SYPRO orange that binds to hydrophobic regions of the protein. DSF was performed by preparing a plate containing 10 μM RalB-GDP and 10 μM RalB-GPNPP, 4×SYPRO orange in 20 mM Tris PH 8.0, 200 mM NaCl, 2.5 mM MgCl2 and 1 mM DTT buffer. Test compound was added to each well ensuring that the final concentration of DMSO was 1% across all samples. The thermal melting curves were obtained on a Light cycler 480 (Roche). The melting temperature was obtained by normalizing the curves and obtaining the temperature at the midpoint of the transition curve.
A general note: In DSF a fluorescence change marks the thermal transition of the protein.

The nature of series [4]: physchem. The format is physicochemical. Particulars: aqueous buffer.
The test system of series [5] is Ras. Nature of the series: Ras activity pull-down in H2122 xenograft tumors. Conditions: BQU57 treated H2122 tumors, 3 h post-dose. It counts as in vivo, human. From the text:
(§2) Activity assay kits for Ras (#BK008) and RhoA (#BK036) were obtained from Cytoskeleton (Denver, Colo.). We used an ELISA for Ral activity based on selective binding of active RalA-GTP to its effector protein RalBP1.
(§3) Finally, we evaluated Ral GTPase activity in vivo in the H2122 xenografts. Nude mice were inoculated with 5×10^6 cells H2122 cells s.c. at four sites per mice. Tumor size reached an average of 250 mm^3 in ten days, at which time mice were given a signal i.p. dose of RBC8 or BQU57 at various concentrations. Tumors were then collected 3 h after injection of RBC8 or BQU57. RalA and RalB activity in tumor samples were then measured using the RalBP1 pull-down assay kit (Millipore #14-415). Ras and RhoA activity in tumor samples were measured using the respective pull-down assay kits. All the activity assays used western blotting as the final readout. For quantification of the immunoblots, the bands on each blot were first normalized to their respective internal control (10 ng of recombinant Ral, Ras, or […] protein run in the last lane) the numbers were then compared across different blots, each of which represented one treatment condition. Mice bearing H2122 tumors (median size 250 mm^3) were given a single intraperitoneal dose of RBC8 (50 mg/kg) or BQU57 (10/20/50 mg/kg) and tumors collected 3 h post-dose.

Series [6] addresses T2, RhoA (Homo sapiens, UniProt P61586).
T2 construct: from tissue; host or cells: H2122 xenograft tumours from nude mice
Nature of the series: RhoA activity pull-down in H2122 xenograft tumors. It counts as in vivo. Conditions: BQU57 treated H2122 tumors, 3 h post-dose.
Text: as §2, §3

Values after ≈ are worked out from the molar mass of the structure shown.

T2 sequence (P61586 whole entry): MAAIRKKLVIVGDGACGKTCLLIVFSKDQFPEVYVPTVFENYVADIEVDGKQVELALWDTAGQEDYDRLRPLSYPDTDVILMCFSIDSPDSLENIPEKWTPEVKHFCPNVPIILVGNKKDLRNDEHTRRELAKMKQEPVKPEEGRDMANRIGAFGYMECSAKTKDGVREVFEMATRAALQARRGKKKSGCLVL

The Kd is the free concentration of one partner at which half of the binding sites on the other are occupied at equilibrium, for simple one-to-one binding. The low end stands for tighter binding, the high end for weaker binding. In general, solubility refers to the concentration that dissolves in the medium under given conditions. The low end stands for a poorly soluble substance, the high end for a readily soluble substance. As to `Cc1nn(C)c2c1C(c1ccc(C(F)(F)F)cc1)C(C#N)=C(N)O2` (stereo not drawn) [BQU57, 6-amino-1,3-dimethyl-4-(4-(trifluoromethyl)phenyl)-1,4-dihydropyrano[2,3-c]pyrazole-5-carbonitrile], the values for the Kd in series [1] and in series [2] were 4.7 ± 1.5 µM and 7.7 ± 0.6 µM, respectively. For the same molecule, the “binding to RalB-GDP by DSF (melting temperature)” value in series [3] is “dose-dependent binding”. This molecule came in with a solubility in series [4] of approximately 75 µM (≈ 25.1 µg/mL). In series [5], the “inhibition of Ras activity in tumors” value is listed as “no significant inhibition”. Further, in series [6], the “inhibition of RhoA activity in tumors” value is “no significant inhibition”.

(Values after US11472812B2, “Anti-cancer compounds targeting Ral GTPases and methods of using the same” (The Regents of the University of Colorado, a body corporate, priority 2014, dated 2022).)
